Experimental data published in US20240398805A1, “QUINAZOLINE DERIVED COMPOUNDS AS EGFR INHIBITORS AND THEIR USES THEREOF” (ACCUTAR BIOTECHNOLOGY INC., priority 2021, published 2024).

What was measured:
Assay type in all cases: cell-based
HCC827 cells = assay: Cell growth inhibition (CellTiter-Glo, 3 days) in HCC827; conditions: Homo sapiens, 72 h, 3 days after administration
Procedure, shortened: (§1)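 HCC827 cells in RPMI/10% FBS and A431 cells in DMEM/10% FBS were seeded at 5000 cells/well and left overnight. Compound was then added over a concentration range for 3 days of incubation, and viability was read by CellTiter-Glo luminescence.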

[1] = system: HCC827-YVMA cells (human ERBB2 exon20 insertion mutant A775_G776ins YVMA); assay: Cell growth inhibition (CellTiter-Glo, 3 days) in HCC827-YVMA; conditions: 72 h, 3 days after administration
Procedure, shortened: (§2)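 Growth inhibition used a CellTiter-Glo luminescence read-out after 3 days of compound exposure at various concentrations. Cells were plated the day before at 5000/well in RPMI plus 10% FBS. The lines are HCC827 transduced by lentivirus with codon-optimized EGFR ASV or ERBB2 YVMA exon 20 insertions.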

[2] = system: HCC827-SVD cells (human EGFR exon 20 insertion mutant D770_N771 insSVD); assay: Cell growth inhibition (CellTiter-Glo, 3 days) in HCC827-SVD; conditions: 72 h, 3 days after administration
Procedure, shortened: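 HCC827 cells carrying lentiviral codon-optimized EGFR D770_N771 insSVD, with endogenous EGFR knocked out by CRISPR (single clone), seeded at 5000 cells/well in RPMI with 10% FBS. Viability read by CellTiter-Glo luminescence.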

[3] = system: HCC827-ASV cells (human EGFR exon 20 insertion mutant A769_D770insASV); assay: Cell growth inhibition (CellTiter-Glo, 3 days) in HCC827-ASV; conditions: 72 h, 3 days after administration
Procedure, shortened: as §2

A431 cells = assay: Cell growth inhibition (CellTiter-Glo, 3 days) in A431; conditions: Homo sapiens, A-431, 72 h, 3 days after administration
Procedure, shortened: as §1

C=CC(=O)N1CCC(Nc2cc3c(Nc4ccc(Oc5ccn(-c6cnc(C)c(F)c6)n5)cc4F)ncnc3cc2OC)CC1 [Compound 2, 1-(4-((4-((2-fluoro-4-((1-(5-fluoro-6-methylpyridin-3-yl)-1H-pyrazol-3-yl)oxy)phenyl)amino)-7-methoxyquinazolin-6-yl)amino)piperidin-1-yl)prop-2-en-1-one]
GI50 (HCC827 cells): < 0.03 µM | GI50 [1]: < 0.03 µM | GI50 [2]: < 0.03 µM | GI50 [3]: < 0.03 µM | GI50 (A431 cells): 0.06 to 0.1 µM

C=CC(=O)N1CCC(Nc2cc3c(Nc4ccc(Oc5ccnc(N6CCC[C@@H]6C)c5)cc4F)ncnc3cc2OC)CC1 [Example 252, (S)-1-(4-((4-((2-fluoro-4-((2-(2-methylpyrrolidin-1-yl)pyridin-4-yl)oxy)phenyl)amino)-7-methoxyquinazolin-6-yl)amino)piperidin-1-yl)prop-2-en-1-one]
GI50 (HCC827 cells): 0.1 to 0.3 µM | GI50 [1]: 0.03 to 0.06 µM | GI50 [2]: 0.03 to 0.06 µM | GI50 [3]: 0.03 to 0.06 µM | GI50 (A431 cells): 0.6 to 1 µM

C=CC(=O)N1CCC(Nc2cc3c(Nc4ccc(Oc5ccnc(-c6cccnc6)c5)cc4F)ncnc3cc2OC)CC1 [Example 237, 1-(4-((4-((4-([2,3′-bipyridin]-4-yloxy)-2-fluorophenyl)amino)-7-methoxyquinazolin-6-yl)amino)piperidin-1-yl)prop-2-en-1-one]
GI50 (HCC827 cells): 0.3 to 0.6 µM | GI50 [1]: < 0.03 µM | GI50 [2]: 0.03 to 0.06 µM | GI50 [3]: 0.06 to 0.1 µM | GI50 (A431 cells): ≥ 1 µM

C=CC(=O)N1CCC(Nc2cc3c(Nc4ccc(Oc5ccnc(N6CC7(COC7)C6)c5)cc4F)ncnc3cc2OC)CC1 [Example 118, 1-(4-((4-((4-((2-(2-oxa-6-azaspiro[3.3]heptan-6-yl)pyridin-4-yl)oxy)-2-fluorophenyl)amino)-7-methoxyquinazolin-6-yl)amino)piperidin-1-yl)prop-2-en-1-one]
GI50 (HCC827 cells): 0.3 to 0.6 µM | GI50 [1]: 0.03 to 0.06 µM | GI50 [2]: 0.03 to 0.06 µM | GI50 [3]: 0.03 to 0.06 µM | GI50 (A431 cells): ≥ 1 µM

C=CC(=O)N1CC[C@H](Nc2cc3c(Nc4ccc(Oc5ccn(-c6cnc(OC)nc6)n5)cc4F)ncnc3cc2OC)C1 [Compound 8, (S)-1-(3-((4-((2-fluoro-4-((1-(2-methoxypyrimidin-5-yl)-1H-pyrazol-3-yl)oxy)phenyl)amino)-7-methoxyquinazolin-6-yl)amino)pyrrolidin-1-yl)prop-2-en-1-one]
GI50 (HCC827 cells): 0.1 to 0.3 µM | GI50 [1]: 0.03 to 0.06 µM | GI50 [2]: 0.03 to 0.06 µM | GI50 [3]: 0.1 to 0.3 µM | GI50 (A431 cells): 0.3 to 0.6 µM
